Patent US7842695B2, “Substituted pyrazole compounds” (Merck Patent GmbH, priority 2003, dated 2010)

Molecular target: 5-HT2A receptors (UniProt P14842)
Test: in-vitro affinity to 5-HT2A receptors, [3H]ketanserine displacement (Example A1)
Type: binding
Excerpt: The 5-HT2A receptors are exposed both to [^3H]ketanserine (a substance known for its affinity to the receptor) and also to the test compound. The decrease in the affinity of [^3H]ketanserine to the receptor is an indication of the affinity of the test substance to the 5-HT2A receptor.

`CN1CCN(c2cnn(-c3ccc(-c4ccc5c(c4)OCO5)cc3)c2-c2ccccc2)CC1` [Example 565, 1-[1-(4-Benzo-1,3-dioxol-5-ylphenyl)-5-phenyl-1H-pyrazol-4-yl]-4-methylpiperazine] was tested, and the IC50 was 10 nM.

`CC(C)(C)OC(=O)NC1CCN(Cc2cnn(-c3ccc(-c4ccc5c(c4)OCCO5)cc3)c2-c2ccco2)CC1` [Example 566, tert-Butyl (1-{1-[4-(2,3-dihydrobenzo-1,4-dioxin-6-yl)phenyl]-5-furan-2-yl-1H-pyrazol-4-ylmethyl}piperidin-4-yl)carbamate] showed an IC50 of 11 nM.

With `OCC1CCN(Cc2cnn(-c3ccc(-c4ccc(F)cc4)cc3)c2-c2ccco2)C1` (stereo not drawn) [Example 567, {1-[1-(4′-Fluorobiphenyl-4-yl)-5-furan-2-yl-1H-pyrazol-4-ylmethyl]pyrrolidin-3-yl}methanol] the IC50 was 11 nM.

With `Fc1ccc(-c2ccc(-n3ncc(CNC4CCCC4)c3-c3ccco3)cc2)cc1` [Example 568, Cyclopentyl-[1-(4′-fluorobiphenyl-4-yl)-5-furan-2-yl-1H-pyrazol-4-ylmethyl]amine] the IC50 was 11 nM.

`CC(C)(C)OC(=O)N1CCN(Cc2cnn(-c3ccc(-c4ccc5c(c4)OCCO5)cc3)c2-c2ccco2)CC1` [Example 572, tert-Butyl 4-{1-[4-(2,3-dihydrobenzo-1,4-dioxin-6-yl)phenyl]-5-furan-2-yl-1H-pyrazol-4-ylmethyl}piperazine-1-carboxylate] showed an IC50 of 12 nM.

Work on `CN1CCN(Cc2cnn(-c3ccc(-c4ccc(F)cc4)cc3)c2-c2c(F)cccc2F)CC1` [Example 573, 1-[5-(2,6-Difluorophenyl)-1-(4′-fluorobiphenyl-4-yl)-1H-pyrazol-4-ylmethyl]-4-methylpiperazine] yielded an IC50 of 13 nM.

Compound `CN1CCC(N(C)Cc2cnn(-c3ccc(-c4ccc(F)cc4)cc3)c2-c2ccco2)C1` (stereo not drawn) [Example 575, [1-(4′-Fluorobiphenyl-4-yl)-5-furan-2-yl-1H-pyrazol-4-ylmethyl]methyl-(1-methyl-3-pyrrolidinyl)amine] has an IC50 of 14.7 nM.

`Cc1noc(C)c1-c1c(CN(C)C)cnn1-c1ccc(-c2ccc(F)cc2)cc1` [Example 577, [5-(3,5-Dimethylisoxazol-4-yl)-1-(4′-fluorobiphenyl-4-yl)-1H-pyrazol-4-ylmethyl]dimethylamine] was tested, and the IC50 was 16 nM.

With `CN1CCN(c2cnn(-c3ccc(-c4cccc(F)c4)cc3)c2-c2ccccc2)CC1` [Example 578, 1-[1-(3′-Fluorobiphenyl-4-yl)-5-phenyl-1H-pyrazol-4-yl]-4-methylpiperazine] the IC50 was 16 nM.

`CN(CCc1ccccc1)Cc1cnn(-c2ccc(-c3ccc(F)cc3)cc2)c1-c1ccco1` [Example 579, [1-(4′-Fluorobiphenyl-4-yl)-5-furan-2-yl-1H-pyrazol-4-ylmethyl]methylphenethylamine] showed an IC50 of 16 nM.

`COCCCNCc1cnn(-c2ccc(-c3ccc(F)cc3)cc2)c1-c1ccco1` [Example 580, [1-(4′-Fluorobiphenyl-4-yl)-5-furan-2-yl-1H-pyrazol-4-ylmethyl]-(3-methoxypropyl)amine] gave an IC50 of 16 nM.

Work on `Fc1ccc(CCN2CCC(NCc3cnn(-c4ccc(-c5ccc(F)cc5)cc4)c3-c3ccco3)C2)cc1` (stereo not drawn) [Example 581, [1-(4′-Fluorobiphenyl-4-yl)-5-furan-2-yl-1H-pyrazol-4-ylmethyl]-{1-[2-(4-fluorophenyl)ethyl]pyrrolidin-3-yl}amine] yielded an IC50 of 17 nM.

`Fc1ccc(-c2ccc(-n3ncc(CNC4CC4)c3-c3ccco3)cc2)cc1` [Example 582] showed an IC50 of 17 nM.

`COc1ccc(-c2ccc(-n3ncc(CN)c3-c3ccco3)cc2)cc1` [Example 584, C-[5-Furan-2-yl-1-(4′-methoxybiphenyl-4-yl)-1H-pyrazol-4-yl]methylamine] gave an IC50 of 18 nM.

`O=C(c1ccccc1)C1CCCN(Cc2cnn(-c3ccc(-c4ccc(F)cc4)cc3)c2-c2ccco2)C1` (stereo not drawn) [Example 593, 1-{1-[1-(4′-Fluorobiphenyl-4-yl)-5-furan-2-yl-1H-pyrazol-4-ylmethyl]piperidin-3-yl}-1-phenylmethanone] showed an IC50 of 20 nM.

In the case of `CC1CCCN1Cc1cnn(-c2ccc(-c3ccc4c(c3)OCCO4)cc2)c1-c1ccco1` (stereo not drawn) [Example 594, 1-[4-(2,3-Dihydrobenzo-1,4-dioxin-6-yl)phenyl]-5-furan-2-yl-4-(2-methylpyrrolidin-1-ylmethyl)-1H-pyrazole], the IC50 is reported as 21 nM.

For `CCN(C)Cc1cnn(-c2ccc(-c3ccc(F)cc3)cc2)c1-c1c(C)noc1C` [Example 597, [5-(3,5-Dimethylisoxazol-4-yl)-1-(4′-fluorobiphenyl-4-yl)-1H-pyrazol-4-ylmethyl]ethylmethylamine], the IC50 was 23 nM.

In the case of `COc1cccc(-c2c(CN3CCC(O)C3)cnn2-c2ccc(-c3ccc(F)cc3)cc2)c1` (stereo not drawn) [Example 598, 1-[1-(4′-Fluorobiphenyl-4-yl)-5-(3-methoxyphenyl)-1H-pyrazol-4-ylmethyl]pyrrolidin-3-ol], the IC50 is reported as 24 nM.

`CN1CCN(Cc2cnn(-c3ccc(-c4ccccc4F)cc3)c2-c2ccco2)CC1` [Example 599, 1-[1-(2′-Fluorobiphenyl-4-yl)-5-furan-2-yl-1H-pyrazol-4-ylmethyl]-4-methylpiperazine] gave an IC50 of 25 nM.

Work on `COCCNCc1cnn(-c2ccc(-c3ccc(F)cc3)cc2)c1-c1ccco1` [Example 603, [1-(4′-Fluorobiphenyl-4-yl)-5-furan-2-yl-1H-pyrazol-4-ylmethyl]-(2-methoxyethyl)amine] yielded an IC50 of 26 nM.

In the case of `Fc1ccc(-c2ccc(-n3ncc(CNCCc4ccccn4)c3-c3ccco3)cc2)cc1` [Example 604, [1-(4′-Fluorobiphenyl-4-yl)-5-furan-2-yl-1H-pyrazol-4-ylmethyl]-(2-pyridin-2-ylethyl)amine], the IC50 is reported as 26 nM.

With `CC(C)(C)OC(=O)NC1CCN(Cc2cnn(-c3ccc(-c4cccc(F)c4)cc3)c2-c2ccco2)CC1` [Example 608, tert-Butyl {1-[1-(3′-fluorobiphenyl-4-yl)-5-furan-2-yl-1H-pyrazol-4-ylmethyl]piperidin-4-yl}carbamate] the IC50 was 29 nM.

`CCN(CC)CCCNCc1cnn(-c2ccc(-c3ccc(F)cc3)cc2)c1-c1ccco1` [Example 609, N,N-Diethyl-N′-[1-(4′-fluorobiphenyl-4-yl)-5-furan-2-yl-1H-pyrazol-4-ylmethyl]propane-1,3-diamine] was tested, and the IC50 was 29 nM.

`CC(C)(C)OC(=O)NC1CCN(Cc2cnn(-c3ccc(-c4ccc5c(c4)OCO5)cc3)c2-c2ccco2)CC1` [Example 611, tert-Butyl {1-[1-(4-benzo-1,3-dioxol-5-ylphenyl)-5-furan-2-yl-1H-pyrazol-4-ylmethyl]piperidin-4-yl}carbamate] gave an IC50 of 31 nM.

In the case of `O=C1CN(Cc2cnn(-c3ccc(-c4ccc5c(c4)OCO5)cc3)c2-c2ccco2)CCN1` [Example 612, 4-[1-(4-Benzo-1,3-dioxol-5-ylphenyl)-5-furan-2-yl-1H-pyrazol-4-ylmethyl]piperazin-2-one], the IC50 is reported as 31 nM.

`COc1ccc(-c2ccc(-n3ncc(CNCc4ccncc4)c3-c3ccco3)cc2)cc1` [Example 615, [5-Furan-2-yl-1-(4′-methoxybiphenyl-4-yl)-1H-pyrazol-4-ylmethyl]pyridin-4-ylmethylamine] gave an IC50 of 32 nM.

`CC1CCCN1Cc1cnn(-c2ccc(-c3ccc4c(c3)OCO4)cc2)c1-c1ccco1` (stereo not drawn) [Example 616, 1-(4-Benzo-1,3-dioxol-5-ylphenyl)-5-furan-2-yl-4-(2-methylpyrrolidin-1-ylmethyl)-1H-pyrazole] gave an IC50 of 32 nM.
